Laboratory results from patent publication US20220213102A1, “DIAZEPINONE DERIVATIVES AS CAPSID ASSEMBLY MODULATORS” (Janssen Sciences Ireland Unlimited Company, priority 2019, published 2022).

Test system: HBV
Experiment: HBV replication inhibition assay (BDNA assay) in HepG2.2.15 cells
Assay type: cell-based
Settings: Hepatitis B virus, HepG2.2.15, 144 h, encapsidated HBV DNA in supernatant at day 6, BDNA QuantiGene assay
Method: HBV replication inhibition by the disclosed compounds were determined in cells infected or transfected with HBV or cells with stably integrated HBV, such as HepG2.2.15 cells (Sells et al. 1987). In this example, HepG2.2.15 cells were maintained in cell culture medium containing 10% fetal bovine serum (FBS), Geneticin, L-glutamine, penicillin and streptomycin. HepG2.2.15 cells were seeded in 96-well plates at a density of 40,000 cells/well and were treated with serially diluted compounds at a final DMSO concentration of 0.5% either alone or in combination by adding drugs in a checker box format. Cells were incubated with compounds for three days, after which medium was removed and fresh medium containing compounds was added to cells and incubated for another three days. At day 6, supernatant was removed and treated with DNase at 37° C. for 60 minutes, followed by enzyme inactivation at 75° C. for 15 minutes. Encapsidated HBV DNA was released from the virions and covalently linked HBV polymerase by incubating in lysis buffer (Affymetrix QS0010) containing 2.5 μg proteinase K at 50° C. for 40 minutes. HBV DNA was denatured by addition of 0.2 M NaOH and detected using a branched DNA (BDNA) QuantiGene assay kit according to manufacturer recommendation (Affymetrix). HBV DNA levels were also quantified using qPCR, based on amplification of encapsidated HBV DNA extraction with QuickExtraction Solution (Epicentre Biotechnologies) and amplification of HBV DNA using HBV specific PCR probes that can hybridize to HBV DNA and a fluorescently labeled probe for quantitation. In addition, cell viability of HepG2.2.15 cells incubated with test compounds alone or in combination was determined by using CellTitre-Glo reagent according to the manufacturer protocol (Promega). The mean background signal from wells containing only culture medium was subtracted from all other samples, and percent inhibition at each compound concentration was calculated by normalizing to signals from HepG2.2.15 cells treated with 0.5% DMSO using equation E1.
% inhibition=(DMSOave−Xi)/DMSOave×100% E1:
where DMSOave is the mean signal calculated from the wells that were treated with DMSO control (0% inhibition control) and Xi is the signal measured from the individual wells. EC50 values, effective concentrations that achieved 50% inhibitory effect, were determined by non-linear fitting using Graphpad Prism software (San Diego, Calif.) and equation E2.
Y=Ymin+(Ymax−Ymin)/(1+10(Log EC50−X)×HillSlope) E2:
where Y represents percent inhibition values and X represents the logarithm of compound concentrations.
Selected disclosed compounds were assayed in the HBV replication assay (BDNA assay), as described above, and a representative group of these active compounds is shown in Table 3.

Structure (SMILES)	EC50 [nM]
CN1CC(F)(c2ccccc2)Cn2nc3c(c2C1=O)CN(C(=O)Nc1ccc(F)c(C#N)c1)CC3 (stereo not shown) [Example 16, N-(3-Cyano-4-fluorophenyl)-8-fluoro-10-methyl-11-oxo-8-phenyl-3,4,8,9,10,11-hexahydro-1H-pyrido[4′,3′:3,4]pyrazolo[1,5-a][1,4]diazepine-2(7H)-carboxamide]	176
CN1CC(c2ccnn2C)Cn2nc3c(c2C1=O)CN(C(=O)Nc1ccc(F)c(C#N)c1)CC3 (stereo not shown) [Example 6, N-(3-Cyano-4-fluorophenyl)-10-methyl-8-(1-methyl-1H-pyrazol-5-yl)-11-oxo-3,4,8,9,10,11-hexahydro-1H-pyrido[4′,3′:3,4]pyrazolo[1,5-a][1,4]diazepine-2(7H)-carboxamide]	83
CN1CC(O)(c2ccccc2)Cn2nc3c(c2C1=O)CN(C(=O)Nc1ccc(F)c(C#N)c1)CC3 (stereo not shown) [Example 15, N-(3-Cyano-4-fluoro-phenyl)-11-hydroxy-13-methyl-14-oxo-11-phenyl-4,8,9,13-tetrazatricyclo[7.5.0.0^2,7]tetradeca-1,7-diene-4-carboxamide]	140
CN1CC(c2ncno2)Cn2nc3c(c2C1=O)CN(C(=O)Nc1ccc(F)c(C#N)c1)CC3 (stereo not shown) [Example 2, N-(3-Cyano-4-fluorophenyl)-10-methyl-8-(1,2,4-oxadiazol-5-yl)-11-oxo-3,4,8,9,10,11-hexahydro-1H-pyrido[4′,3′:3,4]pyrazolo[1,5-a][1,4]diazepine-2(7H)-carboxamide]	> 4000
CN1CC(c2cc[nH]n2)Cn2nc3c(c2C1=O)CN(C(=O)Nc1ccc(F)c(Cl)c1)CC3 (stereo not shown) [Example 4, N-(3-Chloro-4-fluorophenyl)-10-methyl-11-oxo-8-(1H-pyrazol-3-yl)-3,4,8,9,10,11-hexahydro-1H-pyrido[4′,3′:3,4]pyrazolo[1,5-a][1,4]diazepine-2(7H)-carboxamide]	93
CN1CC(c2nc[nH]n2)Cn2nc3c(c2C1=O)CN(C(=O)Nc1ccc(F)c(C#N)c1)CC3 (stereo not shown) [Example 1, N-(3-Cyano-4-fluorophenyl)-10-methyl-11-oxo-8-(1H-1,2,4-triazol-3-yl)-3,4,8,9,10,11-hexahydro-1H-pyrido[4′,3′:3,4]pyrazolo[1,5-a][1,4]diazepine-2(7H)-carboxamide]	> 4000
CN1CC(c2nnn[nH]2)Cn2nc3c(c2C1=O)CN(C(=O)Nc1ccc(F)c(C#N)c1)CC3 (stereo not shown) [Example 3, N-(3-Cyano-4-fluorophenyl)-10-methyl-11-oxo-8-(1H-tetrazol-5-yl)-3,4,8,9,10,11-hexahydro-1H-pyrido[4′,3′:3,4]pyrazolo[1,5-a][1,4]diazepine-2(7H)-carboxamide]	> 4000
